Measured values published in US11396535B2, “Cyclic peptide analogs of melanocortin and amanitin and methods of making such” (THE UNIVERSITY OF BRITISH COLUMBIA, priority 2019, dated 2022).
Starred links: 1 amine or outer side, 2 acyl side, 3 side chain; linkers in the order of their positions; H or OH if unused. Positions of bridges follow the written chain, without caps; N, C: chain ends. Non-standard residues stand in square brackets, D forms with d. Residues, ends and D or L forms follow the SMILES beside them. ξ: configuration not given here. Ile(4R-OH,5-OH) = C[C@H]([C@H](N)C(=O)O)[C@@H](O)CO; X1 = O=C([C@H](Cn1cc2ccccc2c1[*:3])N[*:1])[*:2]; Hyp = O=C(O)[C@@H]1C[C@@H](O)CN1; Dap = NC[C@H](N)C(=O)O; ξC = NC(CS)C(=O)O

What was measured:
[1] = system: CHO cells; format: cell-based; conditions: for toxicity (cytotoxicity): triplicate
Description: FIG. 6: Cytotoxicity assays—CHO cells were incubated with α-amanitin, the monocyclic octapeptide precursor and the FlICk-amanitin-1 for 72 h in triplicate and cell viability was assessed by spectrophotometry with MTT indicator.
FIGS. 11A-11B: MTT cell viability assay against CHO cells: (A) alpha-amanitin; (B) FlICk-amanitin.
Both FlICk amanitin and authentic α-amanitin (purchased from Sigma Aldrich) were dissolved in H2O. The FlICk amanitin concentrations used were 100 μM, 20 μM, 4 μM, 0.8 μM, 0.16 μM, 0.032 μM, 0.0064 μM, 0.00128 μM. The α-amanitin concentrations used were 10 μM, 2 μM, 0.4 μM, 0.08 μM, 0.016 μM, 0.0032 μM, 0.00064 μM, 0.000128 μM, 0.0000256 μM. The cell culture and MTT assay procedures were carried out as per our report on the total synthesis of α-amanitin^38. The MTT assays were run in triplicate. The IC50 assay curves were produced using Prism Software.

[2] = target: melanocortin receptors; conditions: literature value; cited from earlier work
[3] = system: CHO cells; conditions: literature value, read-out: IC50 (cytotoxic to CHO cells); cited from earlier work

CC[C@H](C)[C@@H]1NC(=O)CNC(=O)[C@@H]2Cn3cc4ccccc4c3SCC(NC(=O)CNC1=O)C(=O)N[C@@H](CC(N)=O)C(=O)N1C[C@H](O)C[C@H]1C(=O)N[C@@H]([C@@H](C)[C@@H](O)CO)C(=O)N2 [FlICk-amanitin-1] (cyclo(GIG[ξC]N[Hyp][Ile(4R-OH,5-OH)][X1]); thioether 4-8)
fold less toxic than α-amanitin ([1]; 72 h, MTT): approximately 100 fold
toxicity (cytotoxicity) ([1]; 72 h, MTT): detectable toxicity
fold less toxic than dideoxy-amanitin ([1]; versus dideoxy-amanitin IC50 of 2 μM): 20 fold

CC[C@H](C)[C@@H]1NC(=O)CNC(=O)[C@H](CN)NC(=O)[C@H]([C@@H](C)[C@@H](O)CO)NC(=O)[C@@H]2C[C@@H](O)CN2C(=O)[C@H](CC(N)=O)NC(=O)[C@H](CS)NC(=O)CNC1=O [monocyclic octapeptide precursor, Cyclo-[DhIle-Dap-Gly-Ile-Gly-Cys-Asn-Hyp]] (cyclo(CN[Hyp][Ile(4R-OH,5-OH)][Dap]GIG))
toxicity (cytotoxicity) ([1]; 72 h, MTT): no detectable toxicity

N-Acetyl-L-norleucyl-L-α-aspartyl-L-histidyl-D-phenylalanyl-L-arginyl-L-tryptophyl-L-lysinamide (2→7)-lactam [Melanotan-II]
Kd [2]: ~1 nM

α-amanitin
IC50 [3]: ~500 nM
